Laboratory results published in ChEMBL document CHEMBL1138545, “Synthesis and antimicrobial activities of some new triazolothiadiazoles bearing 4-methylthiobenzyl moiety” (2009).
In brackets after ≈: the same amount, converted by molar mass.

Assays:
Aspergillus fumigatus = experiment: Antifungal activity against Aspergillus fumigatus NICM 902 after 3 to days by serial plate dilution method; assay type: functional; details: for MIC: Aspergillus fumigatus, NICM 902
Escherichia coli [1] = experiment: Antibacterial activity against Escherichia coli ATTC 25922 after 24 hrs by the disk diffusion method; assay type: functional; details: for MIC: Escherichia coli, ATTC 25922, 24 h
Candida albicans = experiment: Antifungal activity against Candida albicans NICM 300 after 3 to days by serial plate dilution method; assay type: functional; details: for MIC: Candida albicans, NICM 300
[2] = system: Trichophyton mentagrophytes; experiment: Antifungal activity against Trichophyton mentagrophytes after 3 to days by serial plate dilution method; assay type: functional; details: for MIC: Trichophyton mentagrophytes
Aspergillus flavus = experiment: Antifungal activity against Aspergillus flavus NICM 524 after 3 to days by serial plate dilution method; assay type: functional; details: for MIC: Aspergillus flavus, NICM 524
Staphylococcus aureus [3] = experiment: Antibacterial activity against Staphylococcus aureus ATTC […] after 24 hrs by the disk diffusion method; assay type: functional; details: for MIC: Staphylococcus aureus, 24 h
Klebsiella pneumoniae [4] = experiment: Antibacterial activity against Klebsiella pneumoniae after 24 hrs by the disk diffusion method; assay type: functional; details: for MIC: Klebsiella pneumoniae, 24 h
Pseudomonas aeruginosa [5] = experiment: Antibacterial activity against Pseudomonas aeruginosa ATTC 27853 after 24 hrs by the disk diffusion method; assay type: functional; details: for MIC: Pseudomonas aeruginosa, ATTC 27853, 24 h
Escherichia coli [6] = experiment: microbe, parasite or virus in culture; details: ATTC 25922, 24 h
Description: Antibacterial activity against Escherichia coli ATTC 25922 at 10 ug/mL after 24 hrs by the disk diffusion method

Klebsiella pneumoniae [7] = experiment: Antibacterial activity against Klebsiella pneumoniae at 10 ug/mL after 24 hrs by the disk diffusion method; assay type: functional
Staphylococcus aureus [8] = experiment: microbe, parasite or virus in culture; details: ATTC 25922, 24 h
Description: Antibacterial activity against Staphylococcus aureus ATTC 25922 at 10 ug/mL after 24 hrs by the disk diffusion method

Pseudomonas aeruginosa [9] = experiment: microbe, parasite or virus in culture; details: ATTC 27853, 24 h, read-out: IZ
Description: Antibacterial activity against Pseudomonas aeruginosa ATTC 27853 at 10 ug/mL after 24 hrs by the disk diffusion method

CSc1ccc(Cc2nnc3sc(-c4ccc(-c5ccc(C)cc5)o4)nn23)cc1
diameter of the inhibition zone (DIZ) (Aspergillus fumigatus): 21 mm | MIC (Aspergillus fumigatus): 12.5 µg/mL (≈ 29.9 µM) | inhibition zone (IZ) (Escherichia coli [1]): 18 mm | MIC (Escherichia coli [1]): 6 µg/mL (≈ 14.3 µM) | diameter of the inhibition zone (DIZ) (Candida albicans): 14 mm | MIC (Candida albicans): 25 µg/mL (≈ 59.7 µM) | diameter of the inhibition zone (DIZ) [2]: 17 mm | MIC [2]: 12.5 µg/mL (≈ 29.9 µM) | diameter of the inhibition zone (DIZ) (Aspergillus flavus): 11 mm | MIC (Aspergillus flavus): 25 µg/mL (≈ 59.7 µM) | inhibition zone (IZ) (Staphylococcus aureus [3]): 18 mm | MIC (Staphylococcus aureus [3]): 12.5 µg/mL (≈ 29.9 µM) | inhibition zone (IZ) (Klebsiella pneumoniae [4]): 23 mm | MIC (Klebsiella pneumoniae [4]): 6 µg/mL (≈ 14.3 µM) | inhibition zone (IZ) (Pseudomonas aeruginosa [5]): 18 mm | MIC (Pseudomonas aeruginosa [5]): 6 µg/mL (≈ 14.3 µM)

COc1ccc(-c2ccc(-c3nn4c(Cc5ccc(SC)cc5)nnc4s3)o2)cc1
diameter of the inhibition zone (DIZ) (Aspergillus fumigatus): 22 mm | MIC (Aspergillus fumigatus): 6 µg/mL (≈ 13.8 µM) | inhibition zone (IZ) (Escherichia coli [1]): 16 mm | MIC (Escherichia coli [1]): 12.5 µg/mL (≈ 28.8 µM) | diameter of the inhibition zone (DIZ) (Candida albicans): 10 mm | MIC (Candida albicans): 25 µg/mL (≈ 57.5 µM) | diameter of the inhibition zone (DIZ) [2]: 18 mm | MIC [2]: 6 µg/mL (≈ 13.8 µM) | diameter of the inhibition zone (DIZ) (Aspergillus flavus): 18 mm | MIC (Aspergillus flavus): 12.5 µg/mL (≈ 28.8 µM) | inhibition zone (IZ) (Staphylococcus aureus [3]): 14 mm | MIC (Staphylococcus aureus [3]): 25 µg/mL (≈ 57.5 µM) | inhibition zone (IZ) (Klebsiella pneumoniae [4]): 18 mm | MIC (Klebsiella pneumoniae [4]): 12.5 µg/mL (≈ 28.8 µM) | inhibition zone (IZ) (Pseudomonas aeruginosa [5]): 17 mm | MIC (Pseudomonas aeruginosa [5]): 12.5 µg/mL (≈ 28.8 µM)

COc1ccc(-c2ccc(-c3nn4c(Cc5ccc(SC)cc5)nnc4s3)o2)c([N+](=O)[O-])c1
diameter of the inhibition zone (DIZ) (Aspergillus fumigatus): 19 mm | MIC (Aspergillus fumigatus): 12.5 µg/mL (≈ 26.1 µM) | inhibition zone (IZ) (Escherichia coli [1]): 13 mm | MIC (Escherichia coli [1]): 25 µg/mL (≈ 52.1 µM) | diameter of the inhibition zone (DIZ) (Candida albicans): 17 mm | MIC (Candida albicans): 25 µg/mL (≈ 52.1 µM) | diameter of the inhibition zone (DIZ) [2]: 15 mm | MIC [2]: 25 µg/mL (≈ 52.1 µM) | diameter of the inhibition zone (DIZ) (Aspergillus flavus): 12 mm | MIC (Aspergillus flavus): 25 µg/mL (≈ 52.1 µM) | inhibition zone (IZ) (Staphylococcus aureus [3]): 12 mm | MIC (Staphylococcus aureus [3]): 25 µg/mL (≈ 52.1 µM) | inhibition zone (IZ) (Klebsiella pneumoniae [4]): 21 mm | MIC (Klebsiella pneumoniae [4]): 6 µg/mL (≈ 12.5 µM) | inhibition zone (IZ) (Pseudomonas aeruginosa [5]): 12 mm | MIC (Pseudomonas aeruginosa [5]): 25 µg/mL (≈ 52.1 µM)

CSc1ccc(Cc2nnc3sc(-c4ccc(-c5cc(Cl)ccc5Cl)o4)nn23)cc1
diameter of the inhibition zone (DIZ) (Aspergillus fumigatus): 13 mm | MIC (Aspergillus fumigatus): 25 µg/mL (≈ 52.8 µM) | inhibition zone (IZ) (Escherichia coli [1]): 16 mm | MIC (Escherichia coli [1]): 12.5 µg/mL (≈ 26.4 µM) | diameter of the inhibition zone (DIZ) (Candida albicans): 20 mm | MIC (Candida albicans): 6 µg/mL (≈ 12.7 µM) | diameter of the inhibition zone (DIZ) [2]: 17 mm | MIC [2]: 12.5 µg/mL (≈ 26.4 µM) | diameter of the inhibition zone (DIZ) (Aspergillus flavus): 18 mm | MIC (Aspergillus flavus): 6 µg/mL (≈ 12.7 µM) | inhibition zone (IZ) (Staphylococcus aureus [3]): 16 mm | MIC (Staphylococcus aureus [3]): 25 µg/mL (≈ 52.8 µM) | inhibition zone (IZ) (Klebsiella pneumoniae [4]): 20 mm | MIC (Klebsiella pneumoniae [4]): 12.5 µg/mL (≈ 26.4 µM) | inhibition zone (IZ) (Pseudomonas aeruginosa [5]): 18 mm | MIC (Pseudomonas aeruginosa [5]): 6 µg/mL (≈ 12.7 µM)

O=C(O)c1cn(C2CC2)c2cc(N3CCNCC3)c(F)cc2c1=O [CIPROFLOXACIN]
MIC (Escherichia coli [6]): 6 µg/mL (≈ 18.1 µM) | MIC (Klebsiella pneumoniae [7]): 6 µg/mL (≈ 18.1 µM) | zone of inhibition at 10 µg/mL (Klebsiella pneumoniae [7]; read-out: IZ): 25 mm | MIC (Staphylococcus aureus [8]): 12.5 µg/mL (≈ 37.7 µM) | zone of inhibition at 10 µg/mL (Staphylococcus aureus [8]; read-out: IZ): 19 mm | zone of inhibition at 10 µg/mL (Pseudomonas aeruginosa [9]): 18 mm
